Test results reported in patent US10822315B2, “5-benzylidene-4-oxazolidinones” (NORTH CAROLINA STATE UNIVERSITY, priority 2016, dated 2020).
Values after ≈ are worked out from the molar mass of the structure shown. Like-named read-outs stand apart in the source and are kept apart here.

Columns and labels:
MRSA ATCC BAA-44 [1] = test: Broth microdilution MIC determination; assay type: cell-based, Staphylococcus aureus; details: for MIC: Staphylococcus aureus
MRSA ATCC BAA-44 [2] = test: Biofilm dispersion assay (crystal violet, pre-formed biofilm); assay type: cell-based, Staphylococcus aureus; details: Staphylococcus aureus; for % dispersion of pre-formed biofilm at 5 µM: MRSA ATCC BAA 44; for IC50: MRSA ATCC BAA-44
Protocol: (§1) General Information. Methicillin-resistant Staphylococcus aureus (MRSA) strains were obtained from the Laboratory of Professor Christian Melander (NCSU) ATCC (33591, BAA 44, BAA 1685, BAA 1770, BAA 43 300) and colonies were grown on solid media as instructed. Mueller-Hinton broth (MHB, 211443-BD), tryptic soy broth (TSB, Remel: R455052) and D-glucose (CAS: 492-62-6) were purchased from Fisher Scientific. Tryptic soy agar (TSA, cat. #22091) and Linezolid (cat. # P70014) were purchased from Sigma-Aldrich. Bacteria for biofilm inhibition and dispersion assays were cultured overnight in TSBG (tryptic soy broth with 0.5% glucose supplement). All assays were run in duplicate and repeated at least two separate times for MIC assays and at least four separate times for biofilm inhibition and dispersion assays. All compounds were dissolved molecular biology grade DMSO as 100 mM stock solutions and further diluted to 10 and 1 mM stock solutions as needed. Optical densities were measured using a Thermo Scientific Genesys 20 spectrophotometer. Data for biofilm inhibition and dispersion assays was collected using a BioTek ELx808 Microplate Reader. All graphs were generated and analyzed using GraphPad Prism 7.
Biofilm Dispersion Assay. Studies were performed using the standard method described in J. J. Richards, T. E. Ballard and C. Melander, Org Biomol Chem, 2008, 6, 1356-1363. Briefly, dispersion assays were performed by taking an overnight culture of bacterial strain and subculturing it at an OD600 of 0.01 into the necessary growth liquid medium. The resulting bacterial suspension was aliquoted (100 μL) into the wells of a 96-well PVC microtiter plate. Plates were then wrapped in GLAD Press n' Seal followed by an incubation under stationary conditions at an ambient temperature. After 24 hours, the media was discarded from the wells and the plates were washed thoroughly with tap water. Predetermined concentrations of the test compound were then made in the same medium used to initially grow the biofilms and then aliquoted (100 μL) into the wells of the 96-well PVC microtiter plate with the established biofilms. Plates were then wrapped in GLAD Press n'Seal and incubated under stationary conditions at 37° C. After 24 hours, the media was discarded from the wells and the plates were washed thoroughly with tap water. Plates were then stained with 100 μL of 0.1% solution of crystal violet (CV) and then incubated at room temperature for 30 minutes. Plates were then washed with tap water again and the remaining stain was solubilized with 200 μL of 95% ethanol. Biofilm dispersion was quantitated by measuring the OD540 for each well by transferring 125 μL of the solubilized CV stain into a polystyrene microtiter dish for analysis. Biofilm inhibition was quantified by measuring the OD540 of each well and calculated as a percentage of the control (no compound), a negative control lane wherein no biofilm was formed served as a background and was subtracted out.
(§2) Percent dispersion was then plotted against concentration in Prism 7. Each of the four experiments were plotted separately and analyzed by a normalized nonlinear regression. The IC50 values reported represent an arithmetic mean of the four IC50 values. Biofilm data represent four separate experiments, with each experiment performed in duplicate (average of 8 data points for each concentration tested, unless otherwise noted)

MRSA ATCC 33591 = test: Broth microdilution MIC determination; assay type: cell-based; details: Staphylococcus aureus, Table 1, read-out: Antimicrobial Activity MIC
Protocol: as §1
Broth microdilution protocol for minimum inhibition concentration (MIC) determination. Studies were performed using the standard method prescribed by the Clinical and Laboratory Standards Institute (CLSI) M07-A8, Vol. 29 (2), which is hereby incorporated herein by reference. Briefly, fresh Mueller-Hinton broth (MHB) ˜3 ml, was inoculated (5×10^5 CFU mL^−1) with MRSA (ATCC 33591) methicillin-resistant Staphylococcus aureus. The resulting bacterial suspension was aliquoted (1 mL) into culture tubes and test compound (10 mM DMSO stock solution) was added to reach the final concentration of the interest. Bacteria not treated with the antimicrobial compound served as the control. Rows 2-12 of a 96-well microtiter plate were filled with remaining bacterial subcultures. The samples containing test compound were aliquoted (200 μL) into the first row wells of the microtiter plate (2 wells per compound). Row 1 wells were mixed 6-8 times and 100 μL was transferred down to row 2. Row 2 wells were mixed 6-8 times, followed by a 100 μL transfer from row 2 down to row 3. The rest of the rows of the plate were serially diluted in similar fashion. The plate was covered with sealing tape for 96-well plates (ThermoFisher) and incubated under stationary conditions at 37° C. A duplicate of the plate was prepared.

red blood cells = test: Lysis of red blood cells; assay type: cell-based; details: 100 μM
MRSA ATCC BAA-44 [3] = test: Biofilm dispersion assay (crystal violet, pre-formed biofilm); assay type: cell-based; details: Staphylococcus aureus, Table 2
MRSA ATCC BAA-44 [4] = test: Biofilm inhibition assay (crystal violet); assay type: cell-based, Staphylococcus aureus; details: for inhibition at 5 µM / IC50 / inhibition at 40 µM: Staphylococcus aureus; for IC50: MRSA ATCC BAA-44; for inhibition at 40 µM: Table 2; for fold reduction in biofilm inhibition activity: 7 versus 4, 8 versus 1
Protocol: as §1
Biofilm Inhibition Assay. Studies were performed using the standard method described in S. A. Rogers and C. Melander, Angew Chem Int Ed, 2008, 47, 5229-5231. Briefly, biofilm inhibition assays were performed by taking an overnight culture of bacterial strain and subculturing it at an OD600 of 0.01 into the necessary growth liquid medium (LB for A. baumannii, LBNS for P. aeruginosa, Stainer-Scholte medium that was supplemented with 10 μL/mL of 100× nutrient complex for B. bronchiseptica and TSB w/0.3% glucose for S. aureus) for the strain. The compound being tested was then added at a predetermined concentration and then aliquoted (100 μL) into the wells of a 96-well PVC microtiter plate (wells not used for samples are filled with 100 μL of de-ionized water). Plates were then wrapped in GLAD Press n' Seal and incubated under stationary conditions at 37° C. After 24 hours, the media was discarded from the wells and the plates were washed thoroughly with tap water. Plates were then stained with 100 μL of 0.1% solution of crystal violet (CV) and then incubated at an ambient temperature for 30 minutes. Sample plates were then washed with tap water again and the remaining stain was solubilized with 200 μL of 95% ethanol. Biofilm inhibition was quantitated by measuring the OD540 for each well by transferring 125 μL of the solubilized CV stain into a polystyrene microtiter dish for analysis. Biofilm inhibition was quantified by measuring the OD540 of each well and calculated as a percentage of the control (no compound); a negative control lane wherein no biofilm was formed served as a background and was subtracted out.
as §2, with “inhibition” for “dispersion”

[5] = MRSA ATCC BAA 44, Table 2, read-out: MIC
[6] = MRSA ATCC BAA-44, Table 1, read-out: Antimicrobial Activity MIC

Compound | MIC (MRSA ATCC BAA-44 [1]; [5]) | MIC (MRSA ATCC BAA-44 [1]; [6]) | IC50 (MRSA ATCC BAA-44 [2]) | MIC (MRSA ATCC 33591) | red blood cells lysed (red blood cells) | IC50 (MRSA ATCC BAA-44 [4]) | antimicrobial activity (in words) (MRSA ATCC BAA-44 [1]; MRSA ATCC BAA-44) | % dispersion of pre-formed biofilm at 5 µM (MRSA ATCC BAA-44 [2]) | inhibition at 40 µM (MRSA ATCC BAA-44 [3]) | inhibition at 5 µM (MRSA ATCC BAA-44 [4]; 5 μM, MRSA ATCC BAA 44) | inhibition at 40 µM (MRSA ATCC BAA-44 [4]; MRSA ATCC BAA 44) | dose dependence of biofilm inhibition (in words) (MRSA ATCC BAA-44 [4]; relative to MIC) | fold reduction in antimicrobial activity (MRSA ATCC BAA-44 [1]; 7 compared with 4) | fold reduction in biofilm inhibition activity (MRSA ATCC BAA-44 [4]) | biofilm activity (in words) (MRSA ATCC BAA-44 [4]; even at 40 μM) | % Biofilm Inhibition (5 μM) (MRSA ATCC BAA-44 [4]; 5 μM, MRSA ATCC BAA 44)
CCCCCCCCC(Cl)(Cl)C1NC(=O)/C(=C/c2ccc(C(F)(F)F)cc2)O1 (stereo not drawn) [Compound 3, (Z)-2-(1,1-dichlorononyl)-5-(4-(trifluoromethyl)benzylidene)oxazolidin-4-one] | > 128 µg/mL | > 128 µg/mL | 6.6 µM | > 128 µg/mL | 7% | 1.7 µM | completely abolished | 19% | 19% | 68% | 75% | dose-dependent biofilm inhibition at concentrations well below their MIC |  |  |  | 
CC(Cl)(Cl)C1NC(=O)/C(=C/c2ccc(C(F)(F)F)cc2)O1 (stereo not drawn) [Compound 4, (Z)-2-(1,1-dichloroethyl)-5-(4-(trifluoromethyl)benzylidene)oxazolidin-4-one] | 32 µg/mL (≈ 94.1 µM) | 32 µg/mL (≈ 94.1 µM) | 5 µM | 32 µg/mL (≈ 94.1 µM) |  | 3.6 µM |  | 50% |  | 55% |  |  |  |  |  | 
CCCCC(Cl)(Cl)C1NC(=O)/C(=C/c2ccccc2)O1 (stereo not drawn) [Compound 6, (Z)-5-benzylidene-2-(1,1-dichloropentyl)oxazolidin-4-one] | 64 µg/mL (≈ 204 µM) | 64 µg/mL (≈ 204 µM) | 5.3 µM | 64 µg/mL (≈ 204 µM) |  | 3.2 µM |  | 14% | 26% | 51% |  |  |  |  |  | 
CC(C)(C)C1NC(=O)/C(=C/c2ccc(C(F)(F)F)cc2)O1 (stereo not drawn) [Compound 7, (Z)-2-(tert-butyl)-5-(4-(trifluoromethyl)benzylidene)oxazolidin-4-one] | 128 µg/mL (≈ 428 µM) | 128 µg/mL (≈ 428 µM) | 9.2 µM | 128 µg/mL (≈ 428 µM) |  | 7.3 µM |  | 5.7% | 31% | 31% | 51% |  | 4 fold | 3 fold |  | 
CCCCCC1NC(=O)/C(=C/c2ccc(C(F)(F)F)cc2)O1 (stereo not drawn) [Compound 8, (Z)-2-pentyl-5-(4-(trifluoromethyl)benzylidene)oxazolidin-4-one] | 64 µg/mL (≈ 204 µM) | 16 µg/mL (≈ 51.1 µM) |  | 16 µg/mL (≈ 51.1 µM) |  | 7.3 µM |  |  |  | 17% | 53% |  |  | 5 fold |  | 
CCCCCCNC(=O)C(=O)Cc1ccc(C(F)(F)F)cc1 [Compound 9, N-hexyl-2-oxo-3-(4-(trifluoromethyl)phenyl)propanamide] | > 128 µg/mL | > 128 µg/mL | > 20 µM | > 128 µg/mL |  | > 20 µM | no antimicrobial activity | -24% | -6.5% | 24% | 41% |  |  |  | only modest biofilm activity | 

Second part, led by results:

MIC (MRSA ATCC BAA-44 [1]; [5]) | MIC (MRSA ATCC BAA-44 [1]; [6]) | IC50 (MRSA ATCC BAA-44 [2]) | MIC (MRSA ATCC 33591) | red blood cells lysed (red blood cells) | IC50 (MRSA ATCC BAA-44 [4]) | Compound | antimicrobial activity (in words) (MRSA ATCC BAA-44 [1]; MRSA ATCC BAA-44) | % dispersion of pre-formed biofilm at 5 µM (MRSA ATCC BAA-44 [2]) | inhibition at 40 µM (MRSA ATCC BAA-44 [3]) | inhibition at 5 µM (MRSA ATCC BAA-44 [4]; 5 μM, MRSA ATCC BAA 44) | inhibition at 40 µM (MRSA ATCC BAA-44 [4]; MRSA ATCC BAA 44) | dose dependence of biofilm inhibition (in words) (MRSA ATCC BAA-44 [4]; relative to MIC) | fold reduction in antimicrobial activity (MRSA ATCC BAA-44 [1]; 7 compared with 4) | fold reduction in biofilm inhibition activity (MRSA ATCC BAA-44 [4]) | biofilm activity (in words) (MRSA ATCC BAA-44 [4]; even at 40 μM) | % Biofilm Inhibition (5 μM) (MRSA ATCC BAA-44 [4]; 5 μM, MRSA ATCC BAA 44)
16 µg/mL (≈ 43.9 µM) | 16 µg/mL (≈ 43.9 µM) | 6 µM | 16 µg/mL (≈ 43.9 µM) |  | 1.9 µM | C#CCC(Cl)(Cl)C1NC(=O)/C(=C/c2ccc(C(F)(F)F)cc2)O1 (stereo not drawn) [Compound 5, (Z)-2-(1,1-dichlorobut-3-yn-1-yl)-5-(4-(trifluoromethyl)benzylidene)oxazolidin-4-one] |  | 63% |  | 64% |  |  |  |  |  | 
> 128 µg/mL |  |  |  |  |  | CCCCC(Cl)(Cl)C1NC(=O)/C(=C/c2ccc(OC)cc2)O1 (stereo not drawn) [Compound 11, (Z)-2-(1,1-di-Chloropentyl)-5-(4-methoxybenzylidene)oxazolidin-4-one] |  | 49% | 58% | < 50% | 52% |  |  |  |  | 39%
